Test results reported in patent US12187722B2, “Small molecule inhibitors of TEAD transcription factors” (The General Hospital Corporation, priority 2019, dated 2025).
Where “and” joins values, the source holds several entries; their conditions need not be identical. Equal values may be shown once.

Target: TEAD2 (Homo sapiens (Human), UniProt Q15562)
Assay: In vitro palmitoylation (TEAD2 autopalmitoylation, streptavidin blot)
Format: biochemical
Conditions: compound at 10 μM; Table 2
Method in brief: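 Autopalmitoylation read by streptavidin-HRP Western blot after CuSO4/TBTA/TCEP click with 100 μM biotin-azide, 1 h RT, with His-HRP probed separately. Before that, TEAD2 protein (GST or His6, 500 ng) given compound for 15 min then 1 μM alkyne palmitoyl-CoA for 30 min; percent inhibition versus DMSO-treated samples.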

Sequence of TEAD2 (Q15562 whole entry): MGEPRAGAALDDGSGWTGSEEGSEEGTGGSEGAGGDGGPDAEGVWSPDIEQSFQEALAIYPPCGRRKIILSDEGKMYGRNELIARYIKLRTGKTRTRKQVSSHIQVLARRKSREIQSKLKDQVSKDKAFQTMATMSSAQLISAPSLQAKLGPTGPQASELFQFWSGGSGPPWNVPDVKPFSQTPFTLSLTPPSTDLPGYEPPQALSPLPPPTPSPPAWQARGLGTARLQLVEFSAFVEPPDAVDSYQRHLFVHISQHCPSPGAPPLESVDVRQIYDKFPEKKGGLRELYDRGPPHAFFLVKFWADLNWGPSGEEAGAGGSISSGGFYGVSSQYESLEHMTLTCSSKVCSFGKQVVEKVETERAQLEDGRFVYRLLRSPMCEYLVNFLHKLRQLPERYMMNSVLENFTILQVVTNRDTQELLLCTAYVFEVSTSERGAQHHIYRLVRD

SMILES | inhibition at 10 µM [%] | % of inhibition of TEAD2 palmitoylation at 10 μM
O=C(O)c1cnccc1Nc1ccc(Nc2ccc(C34CC5CC(CC(C5)C3)C4)cc2Cl)cc1 [Compound 75] | 63 | 
CC(C)(C)OC(=O)N(c1ccc(Nc2ccc(C34CC5CC(CC(C5)C3)C4)cc2Cl)cn1)c1ccccc1C(=O)O [Compound 76] | 34 | 
O=C(N[C@H]1CCC[C@H]1C(=O)O)c1ccc(Nc2ccc(C34CC5CC(CC(C5)C3)C4)cc2Cl)cc1 [Compound 77] | 52 | 
Cc1cc(C23CC4CC(CC(C4)C2)C3)cc(C)c1Nc1ccc(Nc2ccccc2C(=O)O)cc1 [Compound 79] | 45 | 
O=C(O)c1ccccc1Nc1ccc(Nc2ccc(C34CC5CC(CC(C5)C3)C4)cc2)cc1C(F)(F)F [Compound 80] | 40 | 
O=C(O)c1ccc(Nc2ccc(Nc3ccc(C45CC6CC(CC(C6)C4)C5)cc3)cc2)cc1 [Compound 81] | 78 | 
O=C(O)c1ncccc1Nc1ccc(Nc2ccc(C34CC5CC(CC(C5)C3)C4)cc2Cl)cc1 [Compound 82] | 67 | 
O=C(O)c1ccncc1Nc1ccc(Nc2ccc(C34CC5CC(CC(C5)C3)C4)cc2Cl)cc1 [Compound 83] | 65 | 
O=C(O)c1cccc(Nc2ccc(Nc3ccc(C45CC6CC(CC(C6)C4)C5)cc3Cl)cc2)c1 [Compound 84] | 98 | 
O=C(O)c1cncnc1Nc1ccc(Nc2ccc(C34CC5CC(CC(C5)C3)C4)cc2Cl)cc1 [Compound 85] | 20 | 
O=C(O)c1nccnc1Nc1ccc(Nc2ccc(C34CC5CC(CC(C5)C3)C4)cc2Cl)cc1 [Compound 86] | 54 | 
CC(C)c1ccccc1-c1ccc(NC(=O)C2CN(CC(=O)O)C2)cc1 [Compound 87] | 4 | 
O=C(O)C1CCNCC1Nc1ccc(Nc2ccc(C34CC5CC(CC(C5)C3)C4)cc2Cl)cc1 (centres unmarked) [Compound 88] | 12 | 
O=C(O)c1ccnc(Nc2ccc(Nc3ccc(C45CC6CC(CC(C6)C4)C5)cc3Cl)cc2)c1 [Compound 89] | 90 | 
O=C(O)c1cccnc1Nc1ccc(Nc2ccc(C34CC5CC(CC(C5)C3)C4)cc2Cl)nc1 [Compound 91] | 97 | 
O=C(O)c1cccnc1Nc1ccc(C23CC4CC(CC(C4)C2)C3)cc1Br [Compound 92] | 90 | 
O=C(O)C1CNCC1Nc1ccc(Nc2ccc(C34CC5CC(CC(C5)C3)C4)cc2Cl)cc1 (centres unmarked) [Compound 93] | 72 | 
CC(C)(C)OC(=O)NC(Cc1ccc(Nc2ccc(C34CC5CC(CC(C5)C3)C4)cc2Cl)cc1)C(=O)O (centres unmarked) [Compound 94] | 91 | 
NC(Cc1ccc(Nc2ccc(C34CC5CC(CC(C5)C3)C4)cc2Cl)cc1)C(=O)O (centres unmarked) [Compound 95] | 97 | 
O=C(O)c1cccnc1Nc1cccc(C23CC4CC(CC(C4)C2)C3)c1 [Compound 96] | 96 | 
O=C(O)c1cccc2nc(-c3cccc(C45CC6CC(CC(C6)C4)C5)c3)[nH]c12 [Compound 97] | 60 | 
O=C(NC12CC3CC(CC(C3)C1)C2)c1ccc(Nc2ccc(Nc3ccccc3C(=O)O)cc2)cc1 [Compound 98] | 89 | 
CN(c1ccc(Nc2ccc(C34CC5CC(CC(C5)C3)C4)cc2)cc1)c1ccccc1C(=O)O [Compound 99] | 85 | 
O=C(O)Cn1ncc2cc(Nc3ccc(C45CC6CC(CC(C6)C4)C5)cc3Cl)ccc21 [Compound 101] | 62 | 

SMILES | inhibition at 10 µM [%] | % of inhibition of TEAD2 palmitoylation at 10 μM
CC1(C)OC(C(=O)O)C(C(=O)Nc2ccc(Nc3ccc(C45CC6CC(CC(C6)C4)C5)cc3Cl)cc2)O1 (centres unmarked) [Compound 102] | 77 | 
O=C(O)C1CCCN1Cc1ccc(Nc2ccc(C34CC5CC(CC(C5)C3)C4)cc2Cl)cc1 (centres unmarked) [Compound 103] | 53 | 
O=C(O)c1cccnc1Nc1ccc(Nc2cccc(C34CC5CC(CC(C5)C3)C4)c2)cc1 [Compound 104] | 80 | 
Clc1cc(C23CC4CC(CC(C4)C2)C3)ccc1Nc1ccc(Cn2ccnc2)cc1 [Compound 105] | 96 | 
O=C(O)c1cccnc1N1CCN(Cc2ccc(C34CC5CC(CC(C5)C3)C4)cc2Cl)CC1 [Compound 106] | 0 | 
O=C(O)c1cccnc1CN1CCN(Cc2ccc(C34CC5CC(CC(C5)C3)C4)cc2Cl)CC1 [Compound 107] | 14 | 
O=C(O)Cn1cnc2cc(Nc3ccc(C45CC6CC(CC(C6)C4)C5)cc3Cl)ccc21 [Compound 108] | 86 | 
O=C(O)Cn1cc2cc(Nc3ccc(C45CC6CC(CC(C6)C4)C5)cc3Cl)ccc2n1 [Compound 110] | 85 | 
O=C(O)c1cccnc1Nc1cccc(Nc2cccc(C34CC5CC(CC(C5)C3)C4)c2)c1 [Compound 111] | 80 | 
CC(C)c1ccccc1Cc1cccc(Nc2ncccc2C(=O)O)c1 [Compound 113] | 100 | 
O=C(O)c1cccnc1Nc1cccc(Nc2ccc(C34CC5CC(CC(C5)C3)C4)cc2Cl)c1 [Compound 114] | 98 | 
O=C(O)c1cncc(Nc2ccc(Nc3ccc(C45CC6CC(CC(C6)C4)C5)cc3Cl)cc2)n1 [Compound 115] | 67 | 
O=C(O)c1cncc(Nc2ccc(Nc3ccc(C45CC6CC(CC(C6)C4)C5)cc3Cl)cc2)c1 [Compound 116] | 91 | 
O=C(O)c1cc(Nc2ccc(Nc3ccc(C45CC6CC(CC(C6)C4)C5)cc3Cl)cc2)ccn1 [Compound 117] | 9 | 
O=C(O)Cn1ncc2ccc(Nc3ccc(C45CC6CC(CC(C6)C4)C5)cc3Cl)cc21 [Compound 118] | 78 | 
CC1(C)OC(C(=O)O)C(C(=O)Nc2cc(Nc3ccc(C45CC6CC(CC(C6)C4)C5)cc3Cl)cc(C(F)(F)F)c2)O1 (centres unmarked) [Compound 120] | 79 | 
O=C(O)c1cnn(Cc2ccc(Nc3ccc(C45CC6CC(CC(C6)C4)C5)cc3Cl)cc2)c1 [Compound 121] | 80 | 
O=C(O)c1cccnc1Cc1ccc(Nc2ccc(C34CC5CC(CC(C5)C3)C4)cc2Cl)cc1 [Compound 122] | 95 | 
O=C(O)C1CCCN(C(=O)c2ccc(Nc3ccc(C45CC6CC(CC(C6)C4)C5)cc3Cl)cc2)C1 (centres unmarked) [Compound 123] | 88 | 
O=C(O)c1cccn1Cc1ccc(Nc2ccc(C34CC5CC(CC(C5)C3)C4)cc2Cl)cc1 [Compound 124] | 86 | 
O=C(O)Cn1ccc2ccc(Nc3ccc(C45CC6CC(CC(C6)C4)C5)cc3Cl)cc21 [Compound 126] | 86 | 
O=C(O)c1cn(Cc2cccc(Nc3ccc(C45CC6CC(CC(C6)C4)C5)cc3Cl)c2)cn1 [Compound 127] | 27 | 
O=C(O)c1cncn1Cc1cccc(Nc2ccc(C34CC5CC(CC(C5)C3)C4)cc2Cl)c1 [Compound 128] | 92 | 
O=C(O)c1cccnc1Nc1ncn(Cc2ccc(C34CC5CC(CC(C5)C3)C4)cc2Cl)n1 [Compound 129] | 41 | 

SMILES | inhibition at 10 µM [%] | % of inhibition of TEAD2 palmitoylation at 10 μM
O=C(O)Cn1ccc2cc(Nc3ccc(C45CC6CC(CC(C6)C4)C5)cc3Cl)ccc21 [Compound 130] | 100 | 
O=C(O)c1cccnc1Nc1ccc2c(c1)N(Cc1ccc(C34CC5CC(CC(C5)C3)C4)cc1Cl)CC2 [Compound 131] | 37 | 
CN(c1cccc(N(C)c2ncccc2C(=O)O)c1)c1ccc(C23CC4CC(CC(C4)C2)C3)cc1Cl [Compound 132] | 100 | 
CN(c1cnn(Cc2ccc(C34CC5CC(CC(C5)C3)C4)cc2Cl)c1)c1ncccc1C(=O)O [Compound 133] | 93 | 
O=C(O)c1cccnc1Nc1cn(Cc2ccc(C34CC5CC(CC(C5)C3)C4)cc2Cl)cn1 [Compound 134] | 0 | 
CN(c1cccc(Nc2ccc(C34CC5CC(CC(C5)C3)C4)cc2Cl)c1)c1ncccc1C(=O)O [Compound 135] | 100 | 
O=C(O)c1cccnc1Oc1ccc(Nc2ccc(C34CC5CC(CC(C5)C3)C4)cc2Cl)cc1 [Compound 136] | 99 | 
O=C(O)c1cccnc1CN1CCC(Nc2ccc(C34CC5CC(CC(C5)C3)C4)cc2Cl)C1 (centres unmarked) [Compound 137] | 99 | 
CN(c1ccc(Nc2ccc(C34CC5CC(CC(C5)C3)C4)cc2)cc1)c1ncccc1C(=O)O [Compound 138] | 24 | 
CN(c1ccc(C23CC4CC(CC(C4)C2)C3)cc1)c1cccc(N(C)c2ncccc2C(=O)O)c1 [Compound 140] | 99 | 
O=C(O)c1cccnc1CN1CCCC(Nc2ccc(C34CC5CC(CC(C5)C3)C4)cc2Cl)C1 (centres unmarked) [Compound 141] | 95 | 
CN(c1ccc(Nc2ncccc2C(=O)O)cc1)c1ccc(C23CC4CC(CC(C4)C2)C3)cc1Cl [Compound 142] | 65 | 
O=C(O)C1CCCN(Cc2ccc(Nc3ccc(C45CC6CC(CC(C6)C4)C5)cc3Cl)cc2)C1 (centres unmarked) [Compound 143] | 22 | 
CN(c1cnc(Nc2ccc(C34CC5CC(CC(C5)C3)C4)cc2Cl)cn1)c1ccccc1C(=O)O [Compound 144] | 100 | 
O=C(Nc1ccc(C23CC4CC(CC(C4)C2)C3)cc1)c1ccc(Nc2ncccc2C(=O)O)cc1 [Compound 145] |  | 61% and 84%
CN(c1ccc(C(=O)Nc2ccc(C34CC5CC(CC(C5)C3)C4)cc2)cc1)c1ncccc1C(=O)O [Compound 147] | 70 | 
O=C(Nc1ccc(C23CC4CC(CC(C4)C2)C3)cc1)c1ccc(Nc2cccc(C(=O)O)n2)cc1 [Compound 148] | 56 | 69%
CN(C(=O)c1ccc(N(C)c2ccccc2C(=O)O)cc1)c1ccc(C23CC4CC(CC(C4)C2)C3)cc1 [Compound 149] | 40 | 
O=C(O)c1cccc(Nc2cccc(Nc3ccc(C45CC6CC(CC(C6)C4)C5)cc3Cl)c2)n1 [Compound 150] | 100 | 
O=C(O)c1cncc(Nc2cc(C(F)(F)F)cc3[nH]c4ccc(C56CC7CC(CC(C7)C5)C6)cc4c23)c1 [Compound 151] | 101 | 
CN(c1ccc(C23CC4CC(CC(C4)C2)C3)cc1)c1cc(N(C)c2ncccc2C(=O)O)cc(C(F)(F)F)c1 [Compound 152] | 102 | 
O=C(O)c1cncc(Nc2cc(Nc3ccc(C45CC6CC(CC(C6)C4)C5)cc3Cl)cc(C(F)(F)F)c2)c1 [Compound 153] | 100 | 
